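48-hour exposure; five concentrations; linearly interpolated endpoints. TGI: concentration producing complete growth inhibition.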
Columns and labels:
Test in all cases: NCI-60 cell line screen, 48 h
OVCAR-8 ovarian = system: OVCAR-8 ovarian
UO-31 renal = system: UO-31 renal
K-562 leukemia = system: K-562 leukemia
RXF 393 renal = system: RXF 393 renal
LOX IMVI melanoma = system: LOX IMVI melanoma
HL-60(TB) leukemia = system: HL-60(TB) leukemia
OVCAR-4 ovarian = system: OVCAR-4 ovarian
SF-295 CNS = system: SF-295 CNS
COLO 205 colon = system: COLO 205 colon
NCI-H23 lung = system: NCI-H23 lung
BT-549 breast = system: BT-549 breast
786-0 renal = system: 786-0 renal
HOP-62 NSCLC = system: HOP-62 NSCLC
MOLT-4 leukemia = system: MOLT-4 leukemia
HOP-92 NSCLC = system: HOP-92 NSCLC
SNB-19 CNS = system: SNB-19 CNS
OVCAR-3 ovarian = system: OVCAR-3 ovarian
NCI-H226 lung = system: NCI-H226 lung
KM12 colon = system: KM12 colon
A498 renal = system: A498 renal
SW-620 colon = system: SW-620 colon
T-47D breast = system: T-47D breast
EKVX NSCLC = system: EKVX NSCLC
M14 melanoma = system: M14 melanoma
NCI-H522 lung = system: NCI-H522 lung
UACC-62 melanoma = system: UACC-62 melanoma
A549 NSCLC = system: A549 NSCLC
OVCAR-5 ovarian = system: OVCAR-5 ovarian
SN12C renal = system: SN12C renal
MDA-MB-435 = system: MDA-MB-435
MALME-3M melanoma = system: MALME-3M melanoma
HT29 colon = system: HT29 colon
SF-268 CNS = system: SF-268 CNS
SK-MEL-5 melanoma = system: SK-MEL-5 melanoma
SR leukemia = system: SR leukemia
U251 CNS = system: U251 CNS
CAKI-1 renal = system: CAKI-1 renal
DU-145 prostate = system: DU-145 prostate
MCF7 breast = system: MCF7 breast
HCT-15 colon = system: HCT-15 colon
SK-MEL-2 melanoma = system: SK-MEL-2 melanoma
MDA-MB-231 breast = system: MDA-MB-231 breast
ACHN renal = system: ACHN renal
PC-3 prostate = system: PC-3 prostate
HS 578T breast = system: HS 578T breast
NCI/ADR-RES ovarian = system: NCI/ADR-RES ovarian
SK-OV-3 ovarian = system: SK-OV-3 ovarian
RPMI-8226 leukemia = system: RPMI-8226 leukemia
IGROV1 ovarian = system: IGROV1 ovarian
HCT-116 colon = system: HCT-116 colon
TK-10 renal = system: TK-10 renal
MDA-N = system: MDA-N
UACC-257 melanoma = system: UACC-257 melanoma
SK-MEL-28 melanoma = system: SK-MEL-28 melanoma
SNB-75 CNS = system: SNB-75 CNS
NCI-H460 lung = system: NCI-H460 lung
CCRF-CEM leukemia = system: CCRF-CEM leukemia
SF-539 CNS = system: SF-539 CNS

Measured: TGI

CCC1c2[nH]c3ccccc3c2C[C@H]2C(=O)NC(Cc3c[nH]c4ccccc34)C(=O)N12 (stereo partly specified)
78.2 µM: HCT-15 colon
49.2 µM: M14 melanoma
62.2 µM: HT29 colon
37.1 µM: RXF 393 renal
49.4 µM: HS 578T breast
52.9 µM: BT-549 breast
43.4 µM: KM12 colon
94 µM: OVCAR-8 ovarian
38.6 µM: SK-MEL-2 melanoma
46.4 µM: HL-60(TB) leukemia
55.1 µM: 786-0 renal
38.1 µM: MDA-MB-231 breast
55 µM: NCI-H522 lung
49.6 µM: SR leukemia
74 µM: HOP-92 NSCLC
41.1 µM: MDA-MB-435
35 µM: SF-295 CNS
58.5 µM: OVCAR-5 ovarian
31.8 µM: SK-MEL-5 melanoma
88.3 µM: EKVX NSCLC
49.3 µM: LOX IMVI melanoma
82.1 µM: NCI-H226 lung
50.6 µM: HOP-62 NSCLC
37.8 µM: OVCAR-3 ovarian
47.9 µM: MOLT-4 leukemia
42.2 µM: UACC-257 melanoma
55.8 µM: RPMI-8226 leukemia
65.2 µM: IGROV1 ovarian
35.1 µM: HCT-116 colon
63.2 µM: NCI-H23 lung
36.3 µM: MALME-3M melanoma
36.2 µM: COLO 205 colon
67.3 µM: CAKI-1 renal
34.7 µM: U251 CNS
80.4 µM: TK-10 renal
55.2 µM: MDA-N
52.6 µM: SN12C renal
53.1 µM: PC-3 prostate
32.6 µM: UACC-62 melanoma
76.6 µM: NCI/ADR-RES ovarian
not listed: SNB-75 CNS | NCI-H460 lung | CCRF-CEM leukemia | SF-539 CNS
> 100 µM: all other assays above

COc1ccc(N)c(C(=O)CCNC(C)=O)c1
not listed: K-562 leukemia | HOP-62 NSCLC | MALME-3M melanoma | SK-MEL-28 melanoma
> 100 µM: all other assays above

NC(=O)CC(N)C(N)=O (stereo unspecified)
not listed: UO-31 renal | EKVX NSCLC | OVCAR-5 ovarian | HT29 colon | SF-268 CNS
> 100 µM: all other assays above

Source: PubChem BioAssay (NCI)
